Experimental data published in patent US20040258754A1, “Compositions for oral administration of camptothecin and its analogs” (priority 2003, published 2004).
Converted amounts (≈) assume the structure as drawn. Read-outs that look alike come from different tables or passages of the source. Blank lines part the entries; values can stand above or below the compound they belong to.

Assays:
[1] = for Relative Peak Area: 37° C.
[2] = Solubility of camptothecin in formulations with Pluronic P85; assay type: physicochemical; conditions: aqueous with cosolvent or surfactant or cyclodextrin, thermodynamic from solid, read-out: Camptothecin concentration (solubility)
Procedure: Calibration. Fluorescence of 0.300 mL samples of camptothecin solutions in methanol containing between 0.00003 and 0.0005 mg/mL, in triplicates on Helma Quarz plate, was measured using Bio-Tek FL600 fluorescence plate reader with excitation filter wavelength/bandwidth 360/40 nm and emission filter 530/25 nm, sensitivity 70. The average fluorescence was fitted to a linear equation and gave: […]
where C—camptothecin concentration [mg/mL].
Solubility. 0.1 mg camptothecin samples, in triplicates, and 1 mL of the respective buffer or carrier solution, were incubated at room temperature with shaking for 1 hour. The samples were then filtered through Acrodisc CR, PTFE Syringe filter, 4 mm diameter, 0.45 μm pore size Gelman part No. 4472. The filtrate was diluted 100 times with methanol, and the final concentration of camptothecin was determined by fluorescence measurement using the above-described calibration.

[3] = Loading (uptake) of drugs into Pluronic-PAA microgels; assay type: physicochemical; conditions: 1 wt % microgel suspension pH 7.0
Procedure: The beads were used in order to enhance the area of contact between the microgel suspension and drug. The beads were separated into several fractions. One fraction was added to a polypropylene vial containing the microgel suspension (0.5 mL) and the vial was gently shaken in a horizontal position in an environmental chamber at 20 or 37° C. Then the beads were recovered from the suspension by using a magnet. The beads were dried under vacuum and placed into an appropriate solvent (0.5 mL), where the solute was extracted after shaking overnight. The solvent fraction was assayed for the solute concentration using HPLC. The control fraction of loaded beads was subjected to the extraction without equilibration with the microgel suspension. The solute concentrations were measured in triplicate using the HPLC system described above. […] The peak area was integrated and used to calculate camptothecin concentration using standard calibration curves.

[4] = cited from earlier work
[5] = target: human serum albumin (HSA) (Homo sapiens, UniProt P02768); conditions: pH 7.4; cited from earlier work
Chain of human serum albumin (HSA) (P02768 25-609): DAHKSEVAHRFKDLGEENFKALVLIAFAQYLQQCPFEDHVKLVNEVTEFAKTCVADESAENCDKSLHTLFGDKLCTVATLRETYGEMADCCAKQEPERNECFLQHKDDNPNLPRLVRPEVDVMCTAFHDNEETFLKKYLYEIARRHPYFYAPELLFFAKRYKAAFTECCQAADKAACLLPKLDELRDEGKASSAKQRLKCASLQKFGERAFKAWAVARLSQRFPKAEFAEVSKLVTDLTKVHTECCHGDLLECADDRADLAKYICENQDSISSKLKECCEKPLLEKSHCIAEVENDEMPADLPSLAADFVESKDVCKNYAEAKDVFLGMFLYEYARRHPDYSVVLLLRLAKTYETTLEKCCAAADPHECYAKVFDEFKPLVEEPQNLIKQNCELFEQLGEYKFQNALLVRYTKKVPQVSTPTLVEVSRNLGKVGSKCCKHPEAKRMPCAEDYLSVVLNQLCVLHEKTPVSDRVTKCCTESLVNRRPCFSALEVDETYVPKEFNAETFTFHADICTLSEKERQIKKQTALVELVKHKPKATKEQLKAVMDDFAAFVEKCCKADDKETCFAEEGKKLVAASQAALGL

[6] = CPT-11 in human serum Without Gel, exposure 10 min
[7] = CPT-11 loaded in Pluronic-PAA-EGDMA gel (F127-PAA) in human serum, exposure 1 h

Compound: CCc1c2c(nc3ccc(OC(=O)N4CCC(NCCCCC(=O)O)CC4)cc13)-c1cc3c(c(=O)n1C2)COC(=O)[C@]3(O)CC [APC-L]
Relative Peak Area [1, 6]: 0.778
Relative Peak Area [1, 7]: not detected

Compound: CCc1c2c(nc3ccc(OC(=O)N4CCC(N5CCCCC5)CC4)cc13)-c1cc3c(c(=O)n1C2)COC(=O)[C@]3(O)CC [CPT-11, irinotecan]
metabolism in human serum without encapsulation into gels ([1]; male, human, 15 min, 0.013 mg/mL): a substantial portion of CPT-11 was metabolised

Compound: CC[C@@]1(O)C(=O)OCc2c1cc1n(c2=O)Cc2cc3ccccc3nc2-1 [Camptothecin]
solubility at 1 h ([2]; 1% Pluronic P85 in PBS, P85 1% in PBS pH 7.2, room temperature): 3.1 ± 1.5 µg/mL (≈ 8.9 µM)
solubility at 1 h ([2]; 3% Pluronic P85 in PBS, P85 3% in PBS pH 7.2, room temperature): 4.9 ± 1.5 µg/mL (≈ 14.1 µM)
Uptake ± S.D. ([3]; F127-based gel, 20° C.): 13.4 ± 1.54 (20° C.) μmol/g gel
Uptake ± S.D. ([3]; F127-based gel, 37° C.): 16.3 ± 1.86 (37° C.) μmol/g gel
Uptake ± S.D. ([3]; L92-based gel, 20° C.): 16.2 ± 1.87 (20° C.) μmol/g gel
Uptake ± S.D. ([3]; L92-based gel, 37° C.): 19.5 ± 2.33 (37° C.) μmol/g gel
Log P [4]: 0.87
higher affinity of HSA for the carboxylate form than for the alpha-hydroxy lactone form [5]: 150 fold

Relative Peak Area [1, 6]: 1.30
Relative Peak Area [1, 7]: not detected
Compound: CCc1c2c(nc3ccc(O)cc13)-c1cc3c(c(=O)n1C2)COC(=O)[C@]3(O)CC [SN28-L]

Compound: CCc1c2c(nc3ccc(O)cc13)-c1cc(C(O)(CC)C(=O)O)c(CO)c(=O)n1C2 (centres unmarked) [SN28-c]
Relative Peak Area [1, 6]: 1.18
Relative Peak Area [1, 7]: not detected

Uptake ± S.D. ([3]; F127-based gel, 20° C.): 2.27 ± 0.90 (20° C.) μmol/g gel
Uptake ± S.D. ([3]; F127-based gel, 37° C.): 6.97 ± 0.87 (37° C.) μmol/g gel
Uptake ± S.D. ([3]; L92-based gel, 20° C.): 3.65 ± 0.43 (20° C.) μmol/g gel
Uptake ± S.D. ([3]; L92-based gel, 37° C.): 7.25 ± 0.74 (37° C.) μmol/g gel
Compound: CC(=O)O[C@H]1C(=O)[C@@]2(C)[C@H]([C@H](OC(=O)c3ccccc3)[C@]3(O)C[C@H](OC(=O)[C@H](O)[C@@H](NC(=O)c4ccccc4)c4ccccc4)C(C)=C1C3(C)C)[C@]1(OC(C)=O)CO[C@@H]1C[C@@H]2O [Taxol]

Compound: C[C@]12CC[C@@H]3c4ccc(O)cc4CC[C@H]3[C@@H]1CC[C@@H]2O [β-Estradiol]
Log P [4]: 3.86
